Measured values from patent publication US20250011781A1, “METHODS AND COMPOSITIONS TARGETING NUCLEUS ACCUMBENS-ASSOCIATED PROTEIN-1 FOR TREATMENT OF AUTOIMMUNE DISORDERS AND CANCERS” (THE TEXAS A&M UNIVERSITY SYSTEM, priority 2021, published 2025).

What was measured:
mouse CD8+ T cells = mouse CD8+ T cells cultured in CM from NAC1 KO B16-OVA cells supplemented with LA; type: cell-based; details: 2 mM or 5 mM LA
Protocol: Next, mouse CD8^+ T cells in the CM from NAC1 KO mouse B16-OVA cells were cultured and the medium was supplemented with or without 2 mM or 5 mM LA. The addition of LA reduced the production of cytokines including TNF-alpha and IFN-gamma and increased the expression of PD-1 and TIM-3 of CD8^+ T cells (FIGS. 9A-9D). […] In parallel, NAC1 KO tumor cells were transfected with an LDHA expression retroviral vector or a retroviral backbone to overexpress LDHA in NAC1 KO B16-OVA. The mouse CD8^+ T cells in the CM were cultured from NAC1 KO B16-OVA cells overexpressing LDHA (NAC1 KO LDHA OE) or an empty control (NAC1 KO Mock). The overexpression of LDHA conferred NAC1 KO mouse tumor cells with the ability to suppress the production of cytokines and increased expression of PD-1 (FIGS. 9I-9L) and apoptosis (FIGS. 9M-9P) of mouse cytotoxic CD8^+ T cells.
In vitro analysis of CD8^+ T cells. For cytotoxicity analysis, after 24 hours of activation 5×10^5 CD8^+ T cells were cultured with WT B16-OVA and NAC1 KO B16-OVA tumor cells in the ratio of 1:5 and 1:10 respectively. Cytotoxicity was measured by the CytoTox 96 Non-Radioactive Cytotoxicity Assay from Promega (#G1780, Madison, Wisconsin, USA). For cytokine expression analysis, the CD8^+ T cells were cultured with the conditional medium (CM) that was collected from WT B16-OVA and NAC1 KO B16-OVA melanoma cells for 12 hours. Before harvesting the cells, the cells were blocked with the Monensin Solution from BioLegend (#420701, San Diego, California, USA) for 4 hours. For apoptosis analysis, after 12 hours of activation the CD8^+ T cells were incubated with the CM that was collected from WT B16-OVA and NAC1 KO B16-OVA cells for 12 hours, in the absence or presence of L-LA from Sigma-Aldrich (St Louis, MI). […]
Flow Cytometric analysis. […] Stained cell populations were acquired by LSRFortessa from BD Biosciences (Franklin, New Jersey, USA), and the results were analyzed by using FlowJo software from Tree Star (Ashland, Oregon, USA).

Tregs = assay: treatment of Tregs with pro-inflammatory cytokines; type: cell-based, mouse
Protocol: T cell culture. T cells were cultured in 48-well plates containing 1 ml RPMI 1640 (Invitrogen) with 10% fetal calf serum (Omega Scientific, CA). T cell isolation kits including mouse CD4^+ (#130-104-454), CD8a^+ (#130-104-075) and CD4^+ CD25^+ Treg (#130-091-041), T cell activation/expansion kit (#130-093-627) and Treg expansion kit (#130-095-925) were purchased from the Miltenyi Biotec (Auburn, CA). Recombinant mouse TGF-β (#763104), IL-10 (#575106), and TNF-α (#575206) were obtained from BioLegend (San Diego, CA).

NAC1 = target: T1, NAC1 (Homo sapiens, UniProt Q96RE7); details: cited from earlier work
T1 sequence (Q96RE7 1-527): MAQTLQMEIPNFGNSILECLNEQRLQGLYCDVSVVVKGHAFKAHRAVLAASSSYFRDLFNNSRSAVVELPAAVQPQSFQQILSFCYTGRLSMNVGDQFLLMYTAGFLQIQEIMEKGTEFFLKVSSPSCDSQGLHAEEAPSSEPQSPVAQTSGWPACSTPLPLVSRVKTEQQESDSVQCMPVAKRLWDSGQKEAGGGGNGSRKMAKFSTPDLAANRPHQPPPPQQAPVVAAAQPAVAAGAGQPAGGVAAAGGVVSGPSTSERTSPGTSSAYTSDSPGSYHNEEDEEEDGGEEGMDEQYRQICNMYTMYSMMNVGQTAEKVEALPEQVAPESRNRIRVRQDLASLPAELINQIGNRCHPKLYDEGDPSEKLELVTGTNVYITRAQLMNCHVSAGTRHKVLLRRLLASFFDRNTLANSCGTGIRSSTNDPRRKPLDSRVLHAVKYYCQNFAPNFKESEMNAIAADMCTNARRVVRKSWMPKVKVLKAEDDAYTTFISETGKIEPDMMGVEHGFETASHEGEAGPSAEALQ

tumor growth = details: cited from earlier work

In the case of CC(O)C(=O)O (stereo not drawn) [LA, lactic acid], the “apoptosis determined by Annexin V staining” value (mouse CD8+ T cells) is reported as “higher percentage of apoptosis”, the “expression of PD-1 and TIM-3 of CD8+ T cells” value (mouse CD8+ T cells) is reported as “increased” and the “production of cytokines including TNF-alpha and IFN-gamma” value (mouse CD8+ T cells) is reported as “reduced”.

For TNF-α, the “FoxP3 and acetylated FoxP3 in Tregs” value (Tregs) was “evident downregulation” and the “NAC1 expression in Tregs” value (Tregs) was “robust upregulation”.

For CC(C)(C)c1ccc(OCC(=O)NCCNC(=O)COc2ccc(C(C)(C)C)cc2)cc1 [NIC3], the NAC1 homodimerization (NAC1) is listed as “can interrupt NAC1 homodimerization” and the antitumor activity (tumor growth) is listed as “shows antitumor activity”.

B1: IL-10: recombinant mouse cytokine from BioLegend (protein, UniProt P18893 19-178, looked up)
Interleukin-10: SRGQYSREDNNCTHFPVGQSHMLLELRTAFSQVKTFFQTKDQLDNILLTDSLMQDFKGYLGCQALSEMIQFYLVEVMPQAEKHGPEIKEHLNSLGEKLKTLRMRLRRCHRFLPCENKSKAVEQVKSDFNKLQDQGVYKAMNEFDIFINCIEAYMMIKMKS
In the case of B1, the “FoxP3 and acetylated FoxP3 in Tregs” value (Tregs) is reported as “evident downregulation” and the “NAC1 expression in Tregs” value (Tregs) is reported as “robust upregulation”.
